Data: article PMC7413516, “Antidepressant-like activity and safety profile evaluation of 1H-imidazo[2,1-f]purine-2,4(3H,8H)-dione derivatives as 5-HT1A receptor partial agonists” (PLoS ONE, 2020)
Where two headings read alike, the source gives them in different places.

Assay: Pharmacokinetic study in mice, plasma and brain structures, LC/MS/MS
Format: in vivo, Swiss albino mice
Conditions: Swiss albino, mouse, ip, 1.25 mg/kg i.p.
Method: Blood samples from the Swiss albino mice were collected at 0 (pre-dose), 5, 15, 30, 60, 120, 240 and 480 min after a compound administration. The blood samples and brain structures were collected under general anesthesia induced by i.p. injection of 50 mg/kg ketamine plus 8 mg/kg xylazine. The blood samples were taken into heparinized tubes, immediately centrifuged at 1000 × g for 10 min, and plasma was collected. The plasma samples and brain structures were immediately frozen at -30°C and -80°C, respectively.
The plasma and tissue sample pretreatment procedure involved acetonitrile precipitation. A 5 μL aliquot of the IS working solution (100 ng/mL) was added to 50 μL of the collected mouse plasma sample, which was then vortex-mixed for 10 seconds. Thereafter, 200 μL of acetonitrile was added, vortexed during 20 min, and then centrifuged (1000 × g, 10 min). The supernatant (100 μL) was then transferred to insert placed in an autosampler vial, and a 10 μL volume of this was injected onto the HPLC column. Tissue samples were thawed before use, and whole hippocampus, striatum and frontal cortex were weighted and placed in a glass mortar and pestle tissue grinder and homogenized with an appropriate amount of phosphate buffer (pH 7.4) in 1:5 ratio. Afterward, 50 μL of tissue homogenates were transferred to new Eppendorf tubes and spiked with 5 μL of the internal standard working solution. All samples were stored on ice during the preparation process. This was followed by procedures like those described above.
The LC/ESI-MS/MS experiments were performed on an Applied Biosystems/MDS Sciex (Concord, Ontario, Canada) API 2000 triple quadrupole mass spectrometer equipped with an electrospray (ESI) ionization interface. This instrument was coupled to an Agilent 1100 (Agilent Technologies, Waldbronn, Germany) LC system. Data acquisition and processing were accomplished using Sciex Analyst 1.4.2 data collection and integration software.
An XBridge C18 (2.1 x 30 mm, 3.5 μm) analytical column (Waters, Milford, Massachusetts, USA) was used for compound separation. The temperatures of the column thermostat and the autosampler were set at 25°C and 10°C, respectively. The mobile phase consisted of a mixture of acetonitrile with addition of 0.1% formic acid (solvent A) and water with addition of 0.1% formic acid (solvent B) and was set at a flow rate of 0.6 mL/min. Starting amount of solvent A is 10%, isocratic elution from 0 to 3 min, and then gradient up to 90% of solvent A, and maintained to 10 min, and then gradient down to 10% of solvent A, and maintained to 15 min.
The ion source parameters were as follows: ion spray voltage: 5500 V; nebulizer gas (gas 1): 20 psi; turbo gas (gas 2): 25 psi; temperature of the heated nebulizer: 400°C; curtain gas: 40 psi; collision gas: 6 psi. Mass spectra were acquired by SRM with precursor/predominant product ion transitions for each analyte. The mass spectral Q1→Q3 transitions monitored for AZ-853, AZ-861 and for IS (nebivolol), were m/z 453.9→235.1; 504.3→285.1 and 406.2→151.1, respectively. The peak widths of precursor and product ions were set to 0.7 full width half-height. Quantification was done via peak area ratio.
Pharmacokinetic parameters were calculated by a non-compartmental approach from the average concentration values, using Phoenix WinNonlin software (Certara, Princeton, NJ 08540 USA). First order elimination rate constant (λz) was calculated by linear regression of time versus log concentration. Next, the area under the mean serum and tissue concentration versus time curve (AUC0→t) was estimated using the log-linear trapezoidal rule (1), where Ci is the plasma concentration measured at t1.
AUC0→t=∑i=1n((Ci+Ci+1)/2)∙(ti+1−ti). (1)
Area under the first-moment curve (AUMC0→t) was estimated by calculation of the total area under the first-moment curve using the Eq (2), where Ci is the plasma concentration measured at t1. AUMC0→t=∑i=1n((ti∙Ci+ti+1∙Ci+1)/2)∙(ti+1−ti). […]

[1] = hippocampus, 1.25 mg/kg, read-out: Concentration, hippocampus (individual animals)
[2] = hippocampus, 1.25 mg/kg, read-out: Concentration, hippocampus (Mean)
[3] = plasma, 1.25 mg/kg, read-out: Concentration, plasma (Mean)
[4] = plasma, 1.25 mg/kg, read-out: Concentration, plasma (individual animals)
[5] = striatum, 1.25 mg/kg, read-out: Concentration, striatum (Mean)
[6] = striatum, 1.25 mg/kg, read-out: Concentration, striatum (individual animals)

concentration at 5 min [1]: 289 ng/mL
concentration at 15 min [2]: 307 ng/mL
concentration at 15 min [1]: 264 ng/mL
concentration at 30 min [2]: 253 ng/mL
concentration at 30 min [1]: 245 ng/mL
concentration at 60 min [2]: 96.9 ng/mL
concentration at 60 min [1]: 101 ng/mL
concentration at 120 min [2]: 54.3 ng/mL
concentration at 120 min [1]: 60.2 ng/mL
concentration at 240 min [2]: 19.6 ng/mL
concentration at 240 min [1]: 18.2 ng/mL
concentration at 480 min [2]: 15.8 ng/mL
concentration at 480 min [1]: 15.8 ng/mL
Cmax (hippocampus, 1.25 mg/kg, read-out: Cmax, hippocampus): 308 ng/g
Tmax (hippocampus, 1.25 mg/kg, read-out: tmax, hippocampus (converted)): 15 min
CL/F (plasma): 590 mL/min/kg
AUC(0-t) (plasma, read-out: AUC0→t, plasma (converted)): 34.5 ng·h/mL
MRT (plasma, read-out: MRT, plasma (converted)): 52.3 min
concentration at 5 min [3]: 59.8 ng/mL
concentration at 15 min [3]: 36.3 ng/mL
concentration at 15 min [4]: 26.4 ng/mL
concentration at 30 min [3]: 24.8 ng/mL
concentration at 60 min [3]: 5.84 ng/mL
concentration at 60 min [4]: 7.37 ng/mL
concentration at 120 min [3]: 2.58 ng/mL
concentration at 120 min [4]: 1.84 ng/mL
concentration at 240 min [3]: 0.56 ng/mL
concentration at 480 min [3]: 0.27 ng/mL
concentration at 480 min [4]: 0.25 ng/mL
Vd/F (plasma, 1.25 mg/kg, plasma, read-out: Vd/F): > 84 L/kg
Cmax (plasma, 1.25 mg/kg, read-out: Cmax, plasma): 59.6 ng/mL
Tmax (plasma, 1.25 mg/kg, read-out: tmax, plasma): ≤ 5 min
Kp (striatum, ratio of AUC values, read-out: Brain structure-to-plasma concentration ratio, striatum (S/P)): 8.97
AUC(0-t) (striatum, read-out: AUC0→t, striatum (converted)): 309 ng·h/mL
MRT (striatum, read-out: MRT, striatum (converted)): 56.9 min
concentration at 5 min [5]: 181 ng/mL
concentration at 5 min [6]: 190 ng/mL
concentration at 15 min [5]: 334 ng/mL
concentration at 15 min [6]: 377 ng/mL
concentration at 30 min [5]: 305 ng/mL
concentration at 30 min [6]: 341 ng/mL
concentration at 60 min [5]: 58.1 ng/mL
concentration at 60 min [6]: 61.6 ng/mL
concentration at 120 min [5]: 25.6 ng/mL
concentration at 120 min [6]: 28.4 ng/mL
concentration at 240 min [5]: 5.89 ng/mL
concentration at 240 min [6]: 6.95 ng/mL
concentration at 480 min [5]: 1.86 ng/mL
concentration at 480 min [6]: 1.65 ng/mL
Cmax (striatum, 1.25 mg/kg, read-out: Cmax, striatum): 333 ng/g
Tmax (striatum, 1.25 mg/kg, read-out: tmax, striatum (converted)): 15 min
Compound: Cn1c(=O)c2c(nc3n(CCCCN4CCN(c5cccc(C(F)(F)F)c5)CC4)ccn23)n(C)c1=O [AZ-861, 1,3-dimethyl-8-(4-(4-(3-(trifluoromethyl)phenyl)piperazin-1-yl)butyl)-1H-imidazo[2,1-f]purine-2,4(3H,8H)-dione]
